pIC50: −log10 of the molar value.
Key:
MMP12 = MMP12 (Homo sapiens, UniProt P39900); assay: MMP12 fluorogenic peptide biochemical assay
Excerpt: Source of enzymes for biochemical assays: Except for ADAM17 and MT1-MMP, all recombinant human MMPs and ADAMs were obtained from R&D Systems (Minneapolis, Minn.). […] MT1-MMP was obtained from US Biological (Swampscott, Mass.) with a catalog number of M2429. Porcine ADAM17 was purified in house from porcine spleen.
Substrates for biochemical assays: Fluorogenic Peptide substrate, (7-methoxycoumarin-4-yl)acetyl-Pro-Leu-Gly-Leu-(3-[2,4-dinitrophenyl]-L-2,3-diaminopropionyl)-Ala-Arg-NH2 (SEQ ID NO: 46), was obtained from R&D Systems (Minneapolis, Minn.) with a catalog number of ES001. It was used as substrate for MMP1, MMP2, MMP7, MMP8, MMP9, MMP12, MMP13, and MT1-MMP. Fluorogenic Peptide substrate, (7-methoxycoumarin-4-yl)acetyl-Arg-Pro-Lys-Pro-Val-Glu-Nva-Trp-Arg-Lys(2,4-dinitrophenyl)-NH2 (SEQ ID NO: 47), was obtained from R&D Systems with a catalog number of ES002. It was used as substrate for MMP3 and MMP10. […]
In general, 5 mM compound stock was prepared in DMSO. […] The plate was read on a plate reader with excitation of 320 nm and emission of 405 nm. Percentage of inhibition was calculated for each concentration and IC50 value was generated from curve fitting. […]

Her-2 sheddase = assay: Her-2 ECD ELISA of BT474 culture supernatants (Her-2 sheddase inhibition); type: cell-based, human
Experimental: BT474 cells were seeded in 100 μL of RPMI medium containing 10% FCS+10 μg/ml insulin in 96 well plates at 2×10^4 cells/well. The cells were incubated overnight at 37° C. The following morning, the media was removed and 100 μL of fresh media with or without compound was added back. The cells were incubated for about 72 hours at 37° C. After about 72 hours, the supernatants were removed. The samples were diluted 1:10 and analyzed using a commercially available Her-2 ELISA kit per manufacturer's instructions (Oncogene Research, catalog #QIA 10).
These inhibitors were added, at varying concentrations, to cultures of BT474 cells, a Her-2 overexpressing breast cancer cell line known to enzymatically process cell surface Her-2 (p185) and release the extracellular domain (ECD) into the culture supernatant, i.e., shedding of ECD. After 72 hours, cell culture supernatants were harvested and assayed for Her-2 ECD content using an ELISA assay.

MCF7 cells = assay: Cell proliferation assay (cell counting, BrdU incorporation); type: cell-based, human; settings: MCF7 cells which do not overexpress Her-2
Experimental: (§1) Proliferation assays were routinely performed with two protocols: cell counting and BrdU incorporation assay. For cell counting, cells (1×10^5) were seeded in each well of 12 well plates and cultured overnight. Then, cells were treated for 6 days with drugs and compounds as indicated in individual experiments. Culture media were replaced with fresh media containing the same concentrations of drugs and compounds after the first 3 days of treatment. Viable cells were counted with hemacytometers immediately after trypan blue staining.
The BrdU incorporation assay was performed using a colorimetric Cell Proliferation ELISA kit per manufacturer's instruction (#1647229, Roche Molecular Biochemicals), measuring DNA synthesis in proliferating cells. Briefly, cells (5−10×10^3) were seeded in each well of 96 well plates and cultured overnight. The next day, culture media were replaced with fresh media containing drugs and compounds as indicated for individual experiments. […] Finally, 100 μl/well of substrate solution was added and the results were obtained using a microplate reader (Spectra Max PLUS, Molecular Devices) during color development. Multiple readings at various time points were obtained and results in the linear range of the assay were obtained. […]

BT474 cells = assay: as above; type: cell-based, human; settings: Her-2 overexpressing BT474 cells
Experimental: as §1
The BrdU incorporation assay was performed using a colorimetric Cell Proliferation ELISA kit per manufacturer's instruction (#1647229, Roche Molecular Biochemicals), measuring DNA synthesis in proliferating cells. Briefly, cells (5−10×10^3) were seeded in each well of 96 well plates and cultured overnight. […] Finally, 100 μl/well of substrate solution was added and the results were obtained using a microplate reader (Spectra Max PLUS, Molecular Devices) during color development. Multiple readings at various time points were obtained and results in the linear range of the assay were obtained. […]
After varying periods of cell culture (2-6 days), the cell cultures were harvested and cell growth was assessed by cell count and BRdU incorporation using standard protocols.

Sequence of MMP12 (P39900 106-470): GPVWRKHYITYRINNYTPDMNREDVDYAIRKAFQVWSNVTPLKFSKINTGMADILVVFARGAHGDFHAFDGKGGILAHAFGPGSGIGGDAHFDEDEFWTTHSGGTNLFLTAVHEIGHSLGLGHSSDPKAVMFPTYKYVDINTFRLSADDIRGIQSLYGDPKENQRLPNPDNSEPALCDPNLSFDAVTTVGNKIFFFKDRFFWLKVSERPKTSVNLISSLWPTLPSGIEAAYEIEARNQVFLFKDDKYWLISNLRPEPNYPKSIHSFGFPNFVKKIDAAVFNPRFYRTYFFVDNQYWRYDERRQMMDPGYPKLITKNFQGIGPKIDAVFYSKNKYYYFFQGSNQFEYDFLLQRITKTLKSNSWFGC

pIC50 (MMP12): 8.71
Structure (SMILES): CN1CC2(CC2)C[C@H](C(=O)NO)[C@H]1C(=O)N1CCN(c2ccc(C(F)(F)F)cn2)CC1 [Compound 6]
Her-2 sheddase activity (Her-2 sheddase): inactive
effect on antiproliferative activity of a suboptimal dose of Herceptin (MCF7 cells): does not enhance
effect on antiproliferative activity of a suboptimal dose of Herceptin (BT474 cells): does not enhance
